Source: PubChem BioAssay (NCI)
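Here, GI50 denotes the concentration required for 50% inhibition of growth. TGI denotes the concentration required for complete inhibition of growth.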

Experiments:
Experiment in all cases: DTP human tumour cell line panel, 384-well format
RPMI-8226 leukemia = tested on: RPMI-8226 leukemia
MCF7 breast = tested on: MCF7 breast
HCT-15 colon = tested on: HCT-15 colon
U251 glioblastoma = tested on: U251 glioblastoma
SK-MEL-2 melanoma = tested on: SK-MEL-2 melanoma
MDA-MB-435 melanoma = tested on: MDA-MB-435 melanoma
A498 renal = tested on: A498 renal
MDA-MB-468 breast = tested on: MDA-MB-468 breast
SNB-75 CNS = tested on: SNB-75 CNS
SR leukemia = tested on: SR leukemia
HCT-116 colon = tested on: HCT-116 colon
HL-60(TB) leukemia = tested on: HL-60(TB) leukemia
SF-539 CNS = tested on: SF-539 CNS
SK-OV-3 ovarian = tested on: SK-OV-3 ovarian
HT29 colon = tested on: HT29 colon
EKVX NSCLC = tested on: EKVX NSCLC
UACC-62 melanoma = tested on: UACC-62 melanoma
SN12C renal = tested on: SN12C renal
786-0 renal = tested on: 786-0 renal
NCI/ADR-RES ovarian = tested on: NCI/ADR-RES ovarian
K-562 leukemia = tested on: K-562 leukemia
HCC-2998 colon = tested on: HCC-2998 colon
SK-MEL-5 melanoma = tested on: SK-MEL-5 melanoma
A549 NSCLC = tested on: A549 NSCLC
LOX IMVI melanoma = tested on: LOX IMVI melanoma
PC-3 prostate = tested on: PC-3 prostate
NCI-H23 lung = tested on: NCI-H23 lung
KM12 colon = tested on: KM12 colon
SK-MEL-28 melanoma = tested on: SK-MEL-28 melanoma
SF-295 CNS = tested on: SF-295 CNS
HS 578T breast = tested on: HS 578T breast
SW-620 colon = tested on: SW-620 colon
TK-10 renal = tested on: TK-10 renal
DU-145 prostate = tested on: DU-145 prostate
NCI-H522 lung = tested on: NCI-H522 lung
OVCAR-4 ovarian = tested on: OVCAR-4 ovarian
OVCAR-5 ovarian = tested on: OVCAR-5 ovarian
MALME-3M melanoma = tested on: MALME-3M melanoma
NCI-H322M lung = tested on: NCI-H322M lung
MDA-MB-231 breast = tested on: MDA-MB-231 breast
HOP-92 NSCLC = tested on: HOP-92 NSCLC
IGROV1 ovarian = tested on: IGROV1 ovarian
OVCAR-8 ovarian = tested on: OVCAR-8 ovarian
SF-268 CNS = tested on: SF-268 CNS
ACHN renal = tested on: ACHN renal
M14 melanoma = tested on: M14 melanoma
HOP-62 NSCLC = tested on: HOP-62 NSCLC
CAKI-1 renal = tested on: CAKI-1 renal
BT-549 breast = tested on: BT-549 breast
NCI-H226 lung = tested on: NCI-H226 lung
UACC-257 melanoma = tested on: UACC-257 melanoma
SNB-19 CNS = tested on: SNB-19 CNS
MOLT-4 leukemia = tested on: MOLT-4 leukemia
NCI-H460 NSCLC = tested on: NCI-H460 NSCLC
T-47D breast = tested on: T-47D breast
UO-31 renal = tested on: UO-31 renal

Cc1cnc(-c2ccc(-c3ccc(NC(=O)Nc4c(F)cc(F)cc4F)cc3F)c3c2C(=O)NC3)[nH]1
GI50 (RPMI-8226 leukemia): 19.1 nM | TGI (RPMI-8226 leukemia): 386 nM | GI50 (MCF7 breast): 324 nM | TGI (MCF7 breast): 1490 nM | GI50 (HCT-15 colon): 748 nM | TGI (HCT-15 colon): 13100 nM | GI50 (U251 glioblastoma): 623 nM | TGI (U251 glioblastoma): 1960 nM | GI50 (SK-MEL-2 melanoma): 395 nM | TGI (SK-MEL-2 melanoma): 1470 nM | GI50 (MDA-MB-435 melanoma): 397 nM | TGI (MDA-MB-435 melanoma): 1760 nM | GI50 (A498 renal): 165 nM | TGI (A498 renal): 1160 nM | GI50 (MDA-MB-468 breast): < 10 nM | TGI (MDA-MB-468 breast): 434 nM | GI50 (SNB-75 CNS): 340 nM | TGI (SNB-75 CNS): 897 nM | GI50 (SR leukemia): < 10 nM | GI50 (HCT-116 colon): 153 nM | TGI (HCT-116 colon): 1680 nM | GI50 (HL-60(TB) leukemia): < 10 nM | TGI (HL-60(TB) leukemia): 121 nM | GI50 (SF-539 CNS): 305 nM | TGI (SF-539 CNS): 1870 nM | GI50 (SK-OV-3 ovarian): 341 nM | TGI (SK-OV-3 ovarian): 1530 nM | GI50 (HT29 colon): 1060 nM | TGI (HT29 colon): 2270 nM | GI50 (EKVX NSCLC): 816 nM | TGI (EKVX NSCLC): 3570 nM | GI50 (UACC-62 melanoma): 219 nM | TGI (UACC-62 melanoma): 1340 nM | GI50 (SN12C renal): 462 nM | TGI (SN12C renal): 2000 nM | GI50 ([…]-0 renal): 575 nM | TGI (786-0 renal): 1890 nM | GI50 (NCI/ADR-RES ovarian): > 100000 nM | TGI (NCI/ADR-RES ovarian): > 100000 nM | GI50 (K-562 leukemia): 227 nM | TGI (K-562 leukemia): 1350 nM | GI50 (HCC-2998 colon): 1270 nM | TGI (HCC-2998 colon): 2690 nM | GI50 (SK-MEL-5 melanoma): 367 nM | TGI (SK-MEL-5 melanoma): 1520 nM | GI50 (A549 NSCLC): 616 nM | TGI (A549 NSCLC): 2150 nM | GI50 (LOX IMVI melanoma): 345 nM | TGI (LOX IMVI melanoma): 1690 nM | GI50 (PC-3 prostate): 1190 nM | TGI (PC-3 prostate): 2440 nM | GI50 (NCI-H23 lung): 450 nM | TGI (NCI-H23 lung): 1700 nM | GI50 (KM12 colon): < 10 nM | TGI (KM12 colon): 1140 nM | GI50 (SK-MEL-28 melanoma): 633 nM | TGI (SK-MEL-28 melanoma): 2090 nM | GI50 (SF-295 CNS): 1120 nM | TGI (SF-295 CNS): 2420 nM | GI50 (HS 578T breast): 232 nM | TGI (HS 578T breast): 653 nM | GI50 (SW-620 colon): 234 nM | TGI (SW-620 colon): 1310 nM | GI50 (TK-10 renal): 1130 nM | TGI (TK-10 renal): 2420 nM | GI50 (DU-145 prostate): 463 nM | TGI (DU-145 prostate): 1880 nM | GI50 (NCI-H522 lung): 1140 nM | TGI (NCI-H522 lung): 2400 nM | GI50 (OVCAR-4 ovarian): 196 nM | TGI (OVCAR-4 ovarian): 452 nM | GI50 (OVCAR-5 ovarian): 1240 nM | TGI (OVCAR-5 ovarian): 2870 nM | GI50 (MALME-3M melanoma): 52.2 nM | TGI (MALME-3M melanoma): 727 nM | GI50 (NCI-H322M lung): 1300 nM | TGI (NCI-H322M lung): 3110 nM | GI50 (MDA-MB-231 breast): 1030 nM | TGI (MDA-MB-231 breast): 2350 nM | GI50 (HOP-92 NSCLC): 1460 nM | TGI (HOP-92 NSCLC): 2790 nM | GI50 (IGROV1 ovarian): 1300 nM | TGI (IGROV1 ovarian): 6510 nM | GI50 (OVCAR-8 ovarian): 1090 nM | TGI (OVCAR-8 ovarian): 2340 nM | GI50 (SF-268 CNS): 277 nM | TGI (SF-268 CNS): 1500 nM | GI50 (ACHN renal): 957 nM | TGI (ACHN renal): 4520 nM | GI50 (M14 melanoma): 157 nM | TGI (M14 melanoma): 1230 nM | GI50 (HOP-62 NSCLC): 227 nM | TGI (HOP-62 NSCLC): 1270 nM | GI50 (CAKI-1 renal): 1080 nM | TGI (CAKI-1 renal): 2320 nM | GI50 (BT-549 breast): 214 nM | TGI (BT-549 breast): 981 nM | GI50 (NCI-H226 lung): 1360 nM | TGI (NCI-H226 lung): 2740 nM | GI50 (UACC-257 melanoma): 856 nM | TGI (UACC-257 melanoma): 2140 nM | GI50 (SNB-19 CNS): 1250 nM | TGI (SNB-19 CNS): 2620 nM | GI50 (MOLT-4 leukemia): < 10 nM | GI50 (NCI-H460 NSCLC): < 10 nM | TGI (NCI-H460 NSCLC): 201 nM | GI50 (T-47D breast): 1600 nM | TGI (T-47D breast): 3000 nM | GI50 (UO-31 renal): 161 nM | TGI (UO-31 renal): 7350 nM
